What was measured:
[1] = target: T1, human ANO6 (Homo sapiens, UniProt Q4KMQ2); assay: YFP quenching assay (ANO6 ion channel activity); format: cell-based; details: 10 μM ionomycin; for inhibition at 1 µM: test compound 1 μM, read-out: Inhibition Level 1 μM; for inhibition at 30 µM: test compound 30 μM, read-out: Inhibition Level 30 μM
T1 construct: expressed in transfected cells
T1 sequence (Q4KMQ2 1-931 isoform Q4KMQ2-2): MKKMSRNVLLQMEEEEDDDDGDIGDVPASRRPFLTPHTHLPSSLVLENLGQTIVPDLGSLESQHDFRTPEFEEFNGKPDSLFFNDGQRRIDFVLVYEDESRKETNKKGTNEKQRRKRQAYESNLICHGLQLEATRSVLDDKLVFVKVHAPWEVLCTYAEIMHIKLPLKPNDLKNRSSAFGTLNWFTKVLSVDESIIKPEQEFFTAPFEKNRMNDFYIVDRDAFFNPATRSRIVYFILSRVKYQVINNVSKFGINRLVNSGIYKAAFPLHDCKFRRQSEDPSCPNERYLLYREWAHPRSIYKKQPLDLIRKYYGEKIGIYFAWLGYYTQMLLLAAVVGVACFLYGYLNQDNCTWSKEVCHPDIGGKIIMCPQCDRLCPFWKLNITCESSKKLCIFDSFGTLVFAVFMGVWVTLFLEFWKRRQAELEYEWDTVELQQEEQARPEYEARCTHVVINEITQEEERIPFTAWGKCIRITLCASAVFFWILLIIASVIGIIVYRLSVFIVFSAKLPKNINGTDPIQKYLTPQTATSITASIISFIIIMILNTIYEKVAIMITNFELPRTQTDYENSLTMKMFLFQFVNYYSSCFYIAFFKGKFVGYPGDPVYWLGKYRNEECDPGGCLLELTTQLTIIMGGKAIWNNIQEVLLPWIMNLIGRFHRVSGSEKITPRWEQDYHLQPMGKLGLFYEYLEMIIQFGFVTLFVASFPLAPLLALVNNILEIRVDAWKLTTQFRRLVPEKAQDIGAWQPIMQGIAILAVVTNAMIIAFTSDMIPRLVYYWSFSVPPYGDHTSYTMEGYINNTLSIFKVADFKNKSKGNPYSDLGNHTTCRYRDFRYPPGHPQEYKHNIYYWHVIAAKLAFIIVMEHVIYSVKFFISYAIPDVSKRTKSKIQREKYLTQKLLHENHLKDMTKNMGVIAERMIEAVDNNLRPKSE
Outline: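 FRT cells stably expressing human ANO6 and YFP-H148Q/I152L/F46L, preincubated 10 min at 40° C with compounds (1% DMSO) in PBS. Quench read every 0.4 s after injecting 140 mM SCN- with 10 μM ionomycin; % inhibition from the 3.6–7.6 s fluorescence difference, normalised to no-ionomycin (100%) and ionomycin-only (0%) wells, duplicate or triplicate.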

[2] = target: T1, human ANO6; assay: LACT C2 assay (phosphatidylserine scramblase function assay); format: cell-based; details: FRT cells expressing human ANO6, 10 μM ionomycin; for inhibition at 0.1 µM: test compound 100 nM, read-out: Inhibition Level 100 nM; for inhibition at 1 µM: test compound 1 μM, read-out: Inhibition Level 1 μM
Outline: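 Inhibition was normalised between ionomycin-only (0%) and untreated (100%) wells, with triplicates averaged. Readout was background-corrected Lact-C2-GFP (500 nM) fluorescence from imaged cells. The cells were FRT cells stably expressing human ANO6, given compound at 1% DMSO for 10 min before a 10 min 10 μM ionomycin challenge.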

Compound	inhibition at 1 µM [1]	inhibition at 30 µM [1]	inhibition at 0.1 µM [2]	inhibition at 1 µM [2]
COc1cccc(CNC(=O)c2cccc(Nc3ccc(-c4ccccc4)nn3)c2)c1 [Compound A76]	≥ 60%	≥ 60%	< 30%	30 to 60%
O=C(NCCc1cccc(F)c1)c1cccc(Nc2ncc(-c3ccccc3)cn2)c1 [Compound 90, N-[2-(3-fluorophenyl)ethyl]-3-[(5-phenylpyrimidin-2-yl)amino]benzamide]	≥ 60%			30 to 60%
Cc1ccc(CNC(=O)c2cccc(Nc3ccc(-c4ccc(F)cc4)nn3)c2)cc1 [Compound A22]	≥ 60%	≥ 60%	< 30%	< 30%
O=C(NCCC1CCCCC1)c1cccc(Nc2ncc(-c3ccccc3)cn2)c1 [Compound 81, N-(2-cyclohexylethyl)-3-[(5-phenylpyrimidin-2-yl)amino]benzamide]	≥ 60%		30 to 60%	≥ 60%
O=C(NCc1cccs1)c1cccc(Nc2ccc(-c3ccccc3)nn2)c1 [Compound 39, 3-[(6-phenylpyridazin-3-yl)amino]-N-[(thiophen-2-yl)methyl]benzamide]	≥ 60%	≥ 60%		< 30%
CC(C)CNC(=O)c1cccc(Nc2ccc(-c3ccccc3)nn2)c1 [Compound A66]	≥ 60%	≥ 60%	< 30%	< 30%
CCC(CC)NC(=O)c1cccc(Nc2ccc(-c3ccccc3)nn2)c1 [Compound 66, N-(pentan-3-yl)-3-[(6-phenylpyridazin-3-yl)amino]benzamide]	30 to 60%			< 30%
Cc1ccc(CNC(=O)c2cccc(Nc3ccc(C4CCCCC4)nn3)c2)o1 [Compound 63, 3-[(6-cyclohexylpyridazin-3-yl)amino]-N-[(5-methylfuran-2-yl)methyl]benzamide]	30 to 60%			< 30%
Cc1ccc(CNC(=O)c2cccc(Nc3ncc(-c4ccoc4C)cn3)c2)o1 [Compound 112, N-[(5-methylfuran-2-yl)methyl]-3-{[5-(2-methylfuran-3-yl)pyrimidin-2-yl]amino}benzamide]	≥ 60%			30 to 60%
Cc1ccc(CNC(=O)c2cccc(Nc3ncc(-c4ccc(C)o4)cn3)c2)o1 [Compound 92, N-[(5-methylfuran-2-yl)methyl]-3-{[5-(5-methylfuran-2-yl)pyrimidin-2-yl]amino}benzamide]	< 30%			< 30%
CCCCCNC(=O)c1cccc(Nc2ccc(-c3ccccc3)nn2)c1 [Compound A72]	≥ 60%	≥ 60%		30 to 60%
CCC(C)NC(=O)c1cccc(Nc2ccc(-c3ccccc3)nn2)c1 (centres unmarked) [Compound A78]	≥ 60%	≥ 60%	< 30%	< 30%
O=C(Nc1cccc(F)c1)c1cccc(Nc2ccc(-c3ccc(F)cc3)nn2)c1 [Compound A15]	≥ 60%	≥ 60%	< 30%	30 to 60%
O=C(NCCc1ccccc1)c1cccc(Nc2cnc(-c3ccccc3)cn2)c1 [Compound 51, N-(2-phenylethyl)-3-[(5-phenylpyrazin-2-yl)amino]benzamide]	≥ 60%		30 to 60%	≥ 60%
Cc1ccc(CNC(=O)c2cccc(Nc3ccc(-c4ccccc4)cc3)c2)o1 [Compound 3, 3-({[1,1′-biphenyl]-4-yl}amino)-N-[(5-methylfuran-2-yl)methyl]benzamide]	≥ 60%	≥ 60%	< 30%	≥ 60%
O=C(NCc1ccccc1Cl)c1cccc(Nc2ccc(-c3ccccc3)nn2)c1 [Compound A46]	30 to 60%	≥ 60%	< 30%	≥ 60%

Compound	inhibition at 1 µM [1]	inhibition at 30 µM [1]	inhibition at 0.1 µM [2]	inhibition at 1 µM [2]
O=C(NC1CCN(Cc2ccccc2)CC1)c1cccc(Nc2ccc(-c3ccccc3)nn2)c1 [Compound A73]	≥ 60%	≥ 60%	< 30%	30 to 60%
Cc1ccc(CNC(=O)c2cccc(Nc3ccc(-c4ccccc4)nn3)c2)cc1 [Compound A52]	≥ 60%	≥ 60%	< 30%	< 30%
Cc1cccc(CNC(=O)c2cccc(Nc3ccc(-c4ccccc4)nn3)c2)c1 [Compound A50]	≥ 60%	≥ 60%	< 30%	30 to 60%
CSc1ccc(CNC(=O)c2cccc(Nc3ccc(-c4ccc(F)cc4)nn3)c2)cc1 [Compound A27]	30 to 60%	≥ 60%	< 30%	< 30%
CC(C)c1ccc(CNC(=O)c2cccc(Nc3ccc(-c4ccc(F)cc4)nn3)c2)cc1 [Compound A36]	≥ 60%	≥ 60%	< 30%	< 30%
O=C(NCc1ccc2c(c1)OCO2)c1cccc(Nc2ccc(-c3ccccc3)nn2)c1 [Compound A64]	30 to 60%	≥ 60%	< 30%	< 30%
O=C(NCCC1=CCCCC1)c1cccc(Nc2ccc(-c3ccccc3)nn2)c1 [Compound A40]	≥ 60%	≥ 60%	< 30%	≥ 60%
O=C(Nc1ccc2c(c1)OCO2)c1cccc(Nc2ncc(-c3cccc(F)c3)cn2)c1 [Compound A85]	≥ 60%		< 30%	≥ 60%
CCN(CC)c1ccc(CNC(=O)c2cccc(Nc3ccc(-c4ccccc4)nn3)c2)cc1 [Compound A55]	≥ 60%	≥ 60%	< 30%	< 30%
Cc1ccc(CNC(=O)c2cccc(Nc3cnc(-c4ccccc4)cn3)c2)o1 [Compound 1, N-[(5-methylfuran-2-yl)methyl]-3-[(5-phenylpyrazin-2-yl)amino]benzamide]	30 to 60%	≥ 60%		≥ 60%
O=C(NCc1ccco1)c1cccc(Nc2ccc(-c3ccccc3)nn2)c1 [Compound 46, N-[(furan-2-yl)methyl]-3-[(6-phenylpyridazin-3-yl)amino]benzamide]	30 to 60%			30 to 60%
Cc1ccc(CNC(=O)c2cccc(Nc3ccc(-c4ccccc4)cn3)c2)o1 [Compound 4, N-[(5-methylfuran-2-yl)methyl]-3-[(5-phenylpyridin-2-yl)amino]benzamide]	≥ 60%	≥ 60%	< 30%	≥ 60%
Cc1ccc(CNC(=O)c2cccc(Nc3ccc(-c4cccnc4)nn3)c2)o1 [Compound 10, N-[(5-methylfuran-2-yl)methyl]-3-{[6-(pyridin-3-yl)pyridazin-3-yl]amino}benzamide]	≥ 60%	≥ 60%		< 30%
Cc1ccc(CNC(=O)c2cccc(Nc3ccc(-c4cccc(F)c4)cc3)c2)o1 [Compound 57, 3-({3′-fluoro-[1,1′-biphenyl]-4-yl}amino)-N-[(5-methylfuran-2-yl)methyl]benzamide]	≥ 60%		< 30%	≥ 60%
O=C(NC1CC1)c1cccc(Nc2ccc(-c3ccccc3)nn2)c1 [Compound 38, N-cyclopropyl-3-[(6-phenylpyridazin-3-yl)amino]benzamide]	≥ 60%	≥ 60%		< 30%
O=C(NC1CCCCCC1)c1cccc(Nc2ccc(-c3ccccc3)nn2)c1 [Compound A39]	30 to 60%	≥ 60%	≥ 60%	≥ 60%
